Converted amounts (≈) assume the structure as drawn.
Experiments:
[1] = system: S. epidermidis ATCC 14990; test: MIC, broth macrodilution (CLSI), S. epidermidis; assay type: cell-based, Staphylococcus epidermidis; conditions: for Minimal Inhibitory Concentration (MIC): footnote ATCC 1490
Description: (§1) All compounds were tested against American Type Culture Collection (ATCC) reference strains as well as clinical isolates from the Canadian Intensive Care Unit (CAN-ICU) study (Zhanel, et al., 2008). […] Antibacterial activity against Gram-positive and Gram-negative microorganisms was performed via broth macrodilution tests using CLSI methodology (Clinical and Laboratory Standards Institute, 2006). The minimum inhibitory concentration (MIC) in μg/mL of the aminoglycoside-derived amphiphilic polycarbamates and polyethers were determined using established methods (Clinical and Laboratory Standards Institute, 2006) and are shown in Tables 1 and 2, respectively.

S. aureus ATCC 29213 = test: MIC, broth macrodilution (CLSI), S. aureus ATCC 29213; assay type: cell-based, Staphylococcus aureus
Description: as §1

[2] = system: E. coli (Amikacin MIC 32) CAN-ICU 63074; test: MIC, broth macrodilution (CLSI), E. coli CAN-ICU 63074; assay type: cell-based
Description: as §1

[3] = system: Stenotrophomonas maltophilia (CAN-ICU 62585); test: MIC, broth macrodilution (CLSI), S. maltophilia; assay type: cell-based; conditions: S. maltophilia, footnote CAN-ICU 62584
Description: as §1

[4] = system: E. coli (Gentamicin-resistant) CAN-ICU 61714; test: MIC, broth macrodilution (CLSI), gentamicin-resistant E. coli; assay type: cell-based; conditions: for Minimal Inhibitory Concentration (MIC): footnote ATCC 6174 (gentamicin resistant)
Description: as §1

[5] = system: Streptococcus pneumoniae ATCC 49619; test: MIC, broth macrodilution (CLSI), S. pneumoniae ATCC 49619; assay type: cell-based
Description: as §1

[6] = system: methicillin-resistant Staphylococcus aureus (MRSA) ATCC 33592; test: MIC, broth macrodilution (CLSI), MRSA ATCC 33592; assay type: cell-based; conditions: MRSA, methicillin-resistant S. aureus ATCC 33592
Description: as §1

[7] = system: Acinetobacter baumanni (CAN-ICU 63169); test: MIC, broth macrodilution (CLSI), A. baumannii; assay type: cell-based; conditions: A. baumannii CAN-ICU 63169
Description: as §1

E. coli ATCC 25922 = test: MIC, broth macrodilution (CLSI), E. coli ATCC 25922; assay type: cell-based
Description: as §1

[8] = system: P. aeruginosa (Gent-R) CAN-ICU 62308; test: MIC, broth macrodilution (CLSI), P. aeruginosa CAN-ICU 62308; assay type: cell-based, Pseudomonas aeruginosa
Description: as §1

[9] = system: methicillin-resistant Staphylococcus epidermidis (MRSE) CAN-ICU 61589; test: MIC, broth macrodilution (CLSI), MRSE; assay type: cell-based; conditions: methicillin-resistant S. epidermidis, footnote (ATCC 14990)
Description: as §1

[10] = system: Pseudomonas aeruginosa ATCC 27853; test: MIC, broth macrodilution (CLSI), P. aeruginosa ATCC 27853; assay type: cell-based
Description: as §1

S. pneumoniae ATCC 13883 = test: MIC, broth macrodilution (CLSI), S. pneumoniae ATCC 13883; assay type: cell-based
Description: as §1

SMILES	Minimal Inhibitory Concentration (MIC) [1] [µg/mL]	Minimal Inhibitory Concentration (MIC) (S. aureus ATCC 29213) [µg/mL]	Minimal Inhibitory Concentration (MIC) [2] [µg/mL]	Minimal Inhibitory Concentration (MIC) [3] [µg/mL]	Minimal Inhibitory Concentration (MIC) [4] [µg/mL]	Minimal Inhibitory Concentration (MIC) [5] [µg/mL]	Minimal Inhibitory Concentration (MIC) [6] [µg/mL]	Minimal Inhibitory Concentration (MIC) [7] [µg/mL]	Minimal Inhibitory Concentration (MIC) (E. coli ATCC 25922) [µg/mL]	Minimal Inhibitory Concentration (MIC) [8] [µg/mL]	Minimal Inhibitory Concentration (MIC) [9] [µg/mL]	Minimal Inhibitory Concentration (MIC) [10] [µg/mL]	Minimal Inhibitory Concentration (MIC) (S. pneumoniae ATCC 13883) [µg/mL]	also measured
NCC[C@H](O)C(=O)N[C@@H]1C[C@H](N)[C@@H](O[C@H]2O[C@H](CN)[C@@H](O)[C@H](O)[C@H]2O)[C@H](O)[C@H]1O[C@H]1O[C@H](CO)[C@@H](O)[C@H](N)[C@H]1O [Amikacin, reference compound]	–	–	–	–	–	–	–	–	–	–	–	–	–	MIC ([1]; Staphylococcus epidermidis, ATCC 1490 / ATCC 14990, footnote ATCC 1490, read-out: Minimal Inhibitory Concentration (MIC)): 1 µg/mL (≈ 1.71 µM); MIC (S. aureus ATCC 29213; Staphylococcus aureus, ATCC29213, read-out: Minimal Inhibitory Concentration (MIC)): 4 µg/mL (≈ 6.83 µM); MIC ([2]; Escherichia coli, read-out: Minimal Inhibitory Concentration (MIC)): 32 µg/mL (≈ 54.6 µM); MIC ([3]; Stenotrophomonas maltophilia, read-out: Minimal Inhibitory Concentration (MIC)): > 512 µg/mL; MIC ([4]; Escherichia coli, ATCC6174, footnote ATCC 6174 (gentamicin resistant), read-out: Minimal Inhibitory Concentration (MIC)): 2 µg/mL (≈ 3.42 µM); MIC ([5]; Streptococcus pneumoniae, ATCC49619, read-out: Minimal Inhibitory Concentration (MIC)): 8 µg/mL (≈ 13.7 µM); MIC ([6]; Staphylococcus aureus, read-out: Minimal Inhibitory Concentration (MIC)): 8 µg/mL (≈ 13.7 µM); MIC ([7]; read-out: Minimal Inhibitory Concentration (MIC)): 128 µg/mL (≈ 219 µM); MIC (E. coli ATCC 25922; Escherichia coli, ATCC25922, read-out: Minimal Inhibitory Concentration (MIC)): 4 µg/mL (≈ 6.83 µM); MIC ([8]; Pseudomonas aeruginosa, read-out: Minimal Inhibitory Concentration (MIC)): 128 µg/mL (≈ 219 µM); MIC ([9]; Staphylococcus epidermidis, ATCC 14990 / MRSE, read-out: Minimal Inhibitory Concentration (MIC)): 2 µg/mL (≈ 3.42 µM); MIC ([10]; Pseudomonas aeruginosa, ATCC27853, read-out: Minimal Inhibitory Concentration (MIC)): 4 µg/mL (≈ 6.83 µM); MIC (S. pneumoniae ATCC 13883; Streptococcus pneumoniae, ATCC13883, read-out: Minimal Inhibitory Concentration (MIC)): 0.5 µg/mL (≈ 0.854 µM)
NCC1OC(OC2C(N)CC(N)C(OC(=O)Nc3ccc(Cl)cc3)C2OC2OC(COC(=O)Nc3ccc(Cl)cc3)C(OC3OC(CN)C(OC(=O)Nc4ccc(Cl)cc4)C(OC(=O)Nc4ccc(Cl)cc4)C3N)C2OC(=O)Nc2ccc(Cl)cc2)C(N)C(OC(=O)Nc2ccc(Cl)cc2)C1OC(=O)Nc1ccc(Cl)cc1.O=C(O)C(F)(F)F.O=C(O)C(F)(F)F.O=C(O)C(F)(F)F.O=C(O)C(F)(F)F.O=C(O)C(F)(F)F.O=C(O)C(F)(F)F (stereo not drawn) [Compound 2]	16	64	256	128	>256	128	64	>256	>256	256	32	>256	256	–
CCCCCCNC(=O)OCC1OC(OC2C(OC(=O)NCCCCCC)C(N)CC(N)C2OC2OC(CN)C(OC(=O)NCCCCCC)C(OC(=O)NCCCCCC)C2N)C(OC(=O)NCCCCCC)C1OC1OC(CN)C(OC(=O)NCCCCCC)C(OC(=O)NCCCCCC)C1N.O=C(O)C(F)(F)F.O=C(O)C(F)(F)F.O=C(O)C(F)(F)F.O=C(O)C(F)(F)F.O=C(O)C(F)(F)F.O=C(O)C(F)(F)F (stereo not drawn) [Compound 3]	1	2	32	>256	8	8	256	>256	8	256	2	>256	4	–
CN(C)c1ccc(NC(=O)OCC2OC(OC3C(OC(=O)Nc4ccc(N(C)C)cc4)C(N)CC(N)C3OC3OC(CN)C(OC(=O)Nc4ccc(N(C)C)cc4)C(OC(=O)Nc4ccc(N(C)C)cc4)C3N)C(OC(=O)Nc3ccc(N(C)C)cc3)C2OC2OC(CN)C(OC(=O)Nc3ccc(N(C)C)cc3)C(OC(=O)Nc3ccc(N(C)C)cc3)C2N)cc1.O=C(O)C(F)(F)F.O=C(O)C(F)(F)F.O=C(O)C(F)(F)F.O=C(O)C(F)(F)F.O=C(O)C(F)(F)F.O=C(O)C(F)(F)F.O=C(O)C(F)(F)F.O=C(O)C(F)(F)F.O=C(O)C(F)(F)F.O=C(O)C(F)(F)F.O=C(O)C(F)(F)F.O=C(O)C(F)(F)F.O=C(O)C(F)(F)F (stereo not drawn) [Compound 4]	8	16	64	256	128	32	16	>256	128	128	8	128	>256	–
NCC1OC(OC2C(N)CC(N)C(OC3OC(COC(=O)Nc4ccccc4)C(OC(=O)Nc4ccccc4)C(N)C3OC(=O)Nc3ccccc3)C2OC(=O)Nc2ccccc2)C(OC(=O)Nc2ccccc2)C(OC(=O)Nc2ccccc2)C1OC(=O)Nc1ccccc1.O=C(O)C(F)(F)F.O=C(O)C(F)(F)F.O=C(O)C(F)(F)F.O=C(O)C(F)(F)F (stereo not drawn) [Compound 5]	4	32	>256	>256	>256	64	32	>256	>256	>256	8	>256	>256	–
CCCCCCNC(=O)OCC1OC(OC2C(N)CC(N)C(OC3OC(CN)C(OC(=O)NCCCCCC)C(OC(=O)NCCCCCC)C3OC(=O)NCCCCCC)C2OC(=O)NCCCCCC)C(OC(=O)NCCCCCC)C(N)C1OC(=O)NCCCCCC.O=C(O)C(F)(F)F.O=C(O)C(F)(F)F.O=C(O)C(F)(F)F.O=C(O)C(F)(F)F (stereo not drawn) [Compound 6]	16	32	64	>256	64	128	64	>256	128	32	32	128	>256	–
NC[C@@H]1O[C@H](O[C@H]2[C@@H](O)[C@H](O[C@@H]3[C@@H](O)[C@H](N)C[C@H](N)[C@H]3O[C@H]3O[C@H](CN)[C@@H](O)[C@H](O)[C@H]3N)O[C@@H]2CO)[C@H](N)[C@@H](O)[C@@H]1O [Neomycin B, reference compound]	0.25	1	–	>512	8	32	256	64	4	512	0.5	512	1	–

Source: patent publication US8999942B2, “Polyol modified aminoglycoside-lipid conjugates” (University of Manitoba, priority 2010, dated 2015)
